Data published in PMC5761851, “Application of a phenotypic drug discovery strategy to identify biological and chemical starting points for inhibition of TSLP production in lung epithelial cells” (PLoS ONE, 2018).
Several values for one entry are separate records, joined by “and”; a condition that tells them apart may be missing. Equal values may be shown once.

What was measured:
Assay type in all cases: cell-based, human
[1] = test system: TSLP production in NHBE cells; assay: TSLP HTRF assay (TSLP production in poly I:C / IL-4 stimulated NHBE cells); conditions: 4 μM; NHBE donor #1; average ± SD
Description: For dose response curves determinations, stocks of test compounds at a concentration of 1.33x10^-3 M in DMSO were sequentially diluted at 1:4 dilution steps before further 1/50 dilution in BEBM medium containing 1x ITS and 0.1% BSA. For the highest 4 μM concentration test compounds were resuspended in DMSO at a concentration of 2.5x10^-3 M and diluted 1/25 in BEBM medium containing 1x ITS and 0.1% BSA before adding 1 μl to the wells containing the cells.
All subsequent steps were automated using a Sciclone® G3 workstation (Perkin Elmer) with a Twister™ II robot (Perkin Elmer). […] 1 μl of test compound solution prepared at 25x concentration was added to the wells containing NHBE cells. The plates were then incubated during 90 minutes at 37°C, 5% CO2, 90% humidity before adding poly I:C (Invivogen HMW Tirl-pic-5) and human IL-4 (Peprotech 200–04) stimulus in 4 μl of BEBM medium containing 1x ITS, 0.1% BSA and 0.1% DMSO using a Multidrop™. […] Cells were then incubated for 24h in the presence of test compounds and stimulus at 37°C, 5% CO2 and 90% humidity conditions. After the 24h incubation period the plates were transferred to a CyBi®-Well platform (CyBio AG) to collect 10 μl of the supernatants which were transferred to a new plate. TSLP levels in the supernatant were determined using a homogeneous Time-Resolved Fluorescence (HTRF) assay custom developed by Cisbio. The assay was based in the use of a donor dye (europium cryptate) coupled to a monoclonal anti-TSLP antibody and an acceptor dye (d2) coupled to a second polyclonal anti-TSLP antibody. […] 10 μl of the resulting solution was then used to determine TSLP levels as described above.
The standard curve was built with eight points prepared in ITS/BSA in BEBM medium without supplements, starting at 700 pg/ml and diluted 1:2, with medium alone being zero TSLP. Fitting model corresponded to equation 100 of Excel fit software. Data from the primary phenotypic screen was visualized using Vortex (Dotmatics). […] For compound selection the maximum inhibition of the two individual duplicate values was taken into account. Dose response confirmation was performed at single point in the 2 donors tested. 9 point curves were run starting at 4 μM concentration by doing serial 1:4 dilutions in cells derived from both donors.

[2] = test system: TSLP mRNA levels in NHBE cells; assay: TSLP mRNA real-time PCR (qPCR) in NHBE cells; set-up: TSLP mRNA upregulation (% versus control) / % Inhibition of mRNA: dose or concentration left out as unconfirmed
[3] = test system: TSLP production in NHBE cells; assay: TSLP HTRF assay (TSLP production in poly I:C / IL-4 stimulated NHBE cells); conditions: individual values

Structure (SMILES): CC(C)N(C(=O)CN1N=C(c2ccccc2)Cn2c(cc3ccccc32)C1=O)C(C)C [compound 1]
- TSLP protein upregulation (% versus control at 4 µM) [1]: 170 ± 62%
- TSLP mRNA upregulation (% versus control at 4 μM) ([2]; 4 μM, NHBE donor #1, average ± SD): 452 ± 103%
- TSLP mRNA upregulation (% versus control) ([2]; individual values): 525.82% and 378.87%
- TSLP protein upregulation (% versus control at 4 µM) [3]: 138.531% and 75.145% and 206.844% and 140.02% and 231.867% and 228.515%
